Patent US6420423B1 (priority 1995, dated 2002)

How the values were obtained:
Phytophthora infestans = type: in vivo; conditions: 20 ppm of the active substance; test a) or b) not distinguished
Plasmopara viticola = conditions: 20 ppm of the active substance, vines

| SMILES | suppression of infestation (Phytophthora infestans) | curative action (Plasmopara viticola) | melting point |
| --- | --- | --- | --- |
| CCCON=C(C(C)=NOCc1ccccc1C(=COC)C(=O)OC)c1ccc(OCCC)cc1 [Compound 4.60] | completely suppressed | complete curative action | – |
| CON=C(C(C)=NOCc1ccccc1C(=NOC)C(=O)OC)c1ccc(Oc2cccc(Br)c2)cc1 [Compound 2.25] | – | complete curative action | – |
| CCCCOc1ccc(C(=NOC)C(C)=NOCc2ccccc2C(=COC)C(=O)OC)c(F)c1 (single isomer, unassigned) [Compound 1.71A] | – | complete curative action | – |
| CCC(C)Oc1ccc(C(=NOC)C(C)=NOCc2ccccc2C(=COC)C(=O)OC)cc1 (single isomer, unassigned) [Compound 1.30] | completely suppressed | complete curative action | – |
| CCC(C)Oc1ccc(C(=NOC)C(C)=NOCc2ccccc2C(=COC)C(=O)OC)c(F)c1 (single isomer, unassigned) [Compound 1.75A] | completely suppressed | – | – |
| CCCOc1ccc(C(=NOCC)C(C)=NOCc2ccccc2C(=NOC)C(=O)OC)cc1 [Compound 4.58] | – | complete curative action | – |
| CCCOc1ccc(C(=NOC)C(C)=NOCc2ccccc2C(=NOC)C(=O)NC)c(F)c1 [Compound 3.46, 2-Methoxyimino-2-(2-{2-methoxyimino-1-methyl-2-[2-fluoro-4-n-propoxy-phenyl]-ethylideneaminooxymethyl}-phenyl)-N-methyl-acetamide] | – | complete curative action | – |
| CCC(C)Oc1ccc(C(=NOC)C(C)=NOCc2ccccc2C(=COC)C(=O)OC)cc1 (single isomer, unassigned) [Compound 1.29] | – | complete curative action | – |
| CON=C(C(C)=NOCc1ccccc1C(=NOC)C(=O)OC)c1ccc(OC)cc1C [Compound 2.58] | completely suppressed | complete curative action | – |
| COC=C(C(=O)OC)c1ccccc1CON=C(C)C(=NOC)c1cc(F)c(OCC2CC2(Cl)Cl)cc1F (stereo not drawn) [Compound 1.13, (2-{2-[4-(2,2-Dichloro-cyclopropylmethoxy)-2,5-difluoro-phenyl]-2-methoxyimino-1-methyl-ethylideneaminooxymethyl}-phenyl)-3-methoxy-acrylic acid methyl ester] | completely suppressed | complete curative action | – |
| COC=C(C(=O)OC)c1ccccc1CON=C(C)C(=NOC)c1ccc(OCC2CC2(Cl)Cl)c(F)c1 (stereo not drawn) [Compound 1.3, (2-{2-[4-(2,2-Dichloro-cyclopropylmethoxy)-3-fluoro-phenyl]-2-methoxyimino-1-methyl-ethylideneaminooxymethyl}phenyl)-3-methoxy-acrylic acid methyl ester] | completely suppressed | complete curative action | – |
| CCCCOc1ccc(C(=NOC)C(C)=NOCc2ccccc2C(=COC)C(=O)OC)cc1 (mixture of isomers) [Compound 1.33] | completely suppressed | complete curative action | – |
| CON=C(C(C)=NOCc1ccccc1C(=NOC)C(=O)OC)c1ccc(Oc2ccc(C)cc2)cc1 [Compound 2.27] | completely suppressed | complete curative action | – |
| COC=C(C(=O)OC)c1ccccc1CON=C(C)C(=NOC)c1ccc(OC(C)C)cc1F (single isomer, unassigned) [Compound 1.73B] | – | complete curative action | – |
| C#CCON=C(C(C)=NOCc1ccccc1C(=NOC)C(=O)NC)c1ccc(OCCC)cc1 [Compound 4.65] | – | complete curative action | – |
| COC=C(C(=O)OC)c1ccccc1CON=C(C)C(=NOC)c1ccc(OC(C)C)cc1F (single isomer, unassigned) [Compound 1.73A] | – | complete curative action | – |
| COC=C(C(=O)OC)c1ccccc1CON=C(C)C(=NOC)c1ccc(OCC2CC2(Cl)Cl)c(F)c1 (single isomer, unassigned) [Compound 1.4] | completely suppressed | complete curative action | – |
| CCC(C)Oc1ccc(C(=NOC)C(C)=NOCc2ccccc2C(=NOC)C(=O)NC)cc1 (stereo not drawn) [Compound 3.21] | – | complete curative action | – |
| CON=C(C(C)=NOCc1ccccc1C(=NOC)C(=O)OC)c1cccc(Oc2cccc(F)c2)c1 [Compound 2.32] | completely suppressed | – | – |

| SMILES | suppression of infestation (Phytophthora infestans) | curative action (Plasmopara viticola) | melting point |
| --- | --- | --- | --- |
| CNC(=O)C(=NOC)c1ccccc1CON=C(C)C(=NOC)c1ccc(OCC(F)(F)F)cc1 [Compound 3.43] | – | complete curative action | – |
| COC=C(C(=O)OC)c1ccccc1CON=C(C)C(=NOC)c1ccc(OCC2CC2(Cl)Cl)c(Cl)c1 (single isomer, unassigned) [Compound 1.20] | completely suppressed | – | – |
| COC=C(C(=O)OC)c1ccccc1CON=C(C)C(=NOC)c1cc(F)ccc1C (single isomer, unassigned) [Compound 1.52] | – | complete curative action | – |
| COC=C(C(=O)OC)c1ccccc1CON=C(C)C(=NOC)c1ccc(OCC2CC2(Cl)Cl)c(Cl)c1 (single isomer, unassigned) [Compound 1.19] | completely suppressed | – | – |
| COC=C(C(=O)OC)c1ccccc1CON=C(C)C(=NOCC=C(Cl)Cl)c1ccc(OC)cc1 [Compound 4.3] | completely suppressed | complete curative action | – |
| COC=C(C(=O)OC)c1ccccc1CON=C(C)C(=NOC)c1ccc(OC)cc1C (single isomer, unassigned) [Compound 1.78] | – | complete curative action | – |
| CCC(C)Oc1ccc(C(=NOC)C(C)=NOCc2ccccc2C(=NOC)C(=O)OC)cc1 (stereo not drawn) [Compound 2.21] | – | complete curative action | – |
| CCC(C)Oc1ccc(C(=NOC)C(C)=NOCc2ccccc2C(=NOC)C(=O)NC)c(F)c1 (stereo not drawn) [Compound 3.56] | completely suppressed | complete curative action | – |
| CCO/N=C(/C(C)=NOCc1ccccc1C(=NOC)C(=O)OC)c1ccc(OCc2cccc(C(F)(F)F)c2)cc1 | – | – | 68 to 70 °C |
| CCCOc1ccc(C(=NOCC)C(C)=NOCc2ccccc2C(=COC)C(=O)OC)cc1 [Compound 4.57] | completely suppressed | complete curative action | – |
| CON=C(C(C)=NOCc1ccccc1C(=NOC)C(=O)OC)c1ccc(OCC(C)C)cc1 [Compound 2.22] | – | complete curative action | – |
| CCOc1ccc(C(=NOC)C(C)=NOCc2ccccc2C(=NOC)C(=O)OC)c(F)c1 [Compound 2.49, 2-Methoxyimino-(2-{2-methoxyimino-1-methyl-2-[2-fluoro-4-ethoxy-phenyl]-ethylideneaminooxymethyl}-phenyl)-acetic acid methyl ester] | – | complete curative action | – |
| CCC(C)Oc1ccc(C(=NOC)C(C)=NOCc2ccccc2C(=NOC)C(=O)OC)c(F)c1 (stereo not drawn) [Compound 2.55] | completely suppressed | complete curative action | – |
| CON=C(C(C)=NOCc1ccccc1C(=NOC)C(=O)OC)c1ccc(OC[Si](C)(C)C)cc1 [Compound 2.33] | – | complete curative action | – |
| CCOc1ccc(C(=NOC)C(C)=NOCc2ccccc2C(=NOC)C(=O)NC)c(C)c1 [Compound 3.60, 2-Methoxyimino-2-(2-{2-methoxyimino-1-methyl-2-[4-ethoxy-2-methyl-phenyl]-ethylideneaminooxymethyl}-phenyl)-N-methyl-acetamide] | completely suppressed | – | – |
| CCCCOc1ccc(C(=NOC)C(C)=NOCc2ccccc2C(=COC)C(=O)OC)c(F)c1 (single isomer, unassigned) [Compound 1.71B] | – | complete curative action | – |
| CCCOc1ccc(C(=NOC)C(C)=NOCc2ccccc2C(=NOC)C(=O)OC)c(F)c1 [Compound 2.45, 2-Methoxyimino-(2-{2-methoxyimino-1-methyl-2-[2-fluoro-4-n-propoxy-phenyl]-ethylideneaminooxymethyl}-phenyl)-acetic acid methyl ester] | – | complete curative action | – |
| COC=C(C(=O)OC)c1ccccc1CON=C(C)C(=NOC)c1ccc(OCC(C)C)cc1 [Compound 1.31, {2-[2-(4-Isobutoxy-phenyl)-2-methoxyimino-1-methyl-ethylideneaminooxymethyl]-phenyl}-3-methoxy-acrylic acid methyl ester] | completely suppressed | complete curative action | – |
| CCCOc1ccc(C(=NOC)C(C)=NOCc2ccccc2C(=COC)C(=O)OC)c(F)c1 (single isomer, unassigned) [Compound 1.63B] | – | complete curative action | – |
